Measured values as given in patent US11225505B2, “Antimicrobial polymyxin derivative compounds” (MONASH UNIVERSITY, priority 2015, dated 2022).
Converted amounts (≈) assume the structure as drawn. Where a SMILES comes first, the peptide text is derived from it. Bridges are numbered along the chain shown (N, C = ends). [ ]: non-standard residue; d: D form. The star is where a group is joined. Quinoline3carbonyl = O=C(c1cnc2ccccc2c1)*; X45 = O=C(c1cc(C(F)(F)F)ccn1)*; X62 = O=C(c1cc(Br)c(Br)s1)*; dNle = CCCC[C@@H](N)C(=O)O; X1 = O=C(c1ncc(Cl)cc1Cl)*; dNva = CCC[C@@H](N)C(=O)O; X29 = O=C(c1cc(Cl)ccn1)*; X30 = O=C(c1ccc(Cl)cn1)*; Dab = NCC[C@H](N)C(=O)O; X60 = O=C(c1cnc(Br)s1)*; Abu = CC[C@H](N)C(=O)O; Dap = NC[C@H](N)C(=O)O

Columns and labels:
Format in all cases: cell-based
[1] = system: Enterobacter cloacae FADDI-EC003; conditions: FADDI-EC003
Procedure, shortened: (§1)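 Broth microdilution MIC per CLSI in cation-adjusted Mueller-Hinton broth, lipopeptides tested as TFA salts. Polymyxin B sulphate served as control.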

[2] = system: Klebsiella pneumoniae FADDI-KP022; conditions: FADDI-KP022
Procedure, shortened: as §1

[3] = system: Acinetobacter baumannii FADDI-AB034; conditions: FADDI-AB034
Procedure, shortened: as §1

[4] = system: Pseudomonas aeruginosa FADDI-PA022; conditions: FADDI-PA022
Procedure, shortened: as §1

[5] = system: Enterobacter cloacae FADDI-EC001; conditions: FADDI-EC001
Procedure, shortened: (§2)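 Gram-negative bacteria susceptible to polymyxin were exposed to lipopeptide trifluoroacetates in CAMHB, and growth inhibition was read as the MIC by the CLSI microdilution protocol.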

[6] = system: Enterobacter cloacae FADDI-EC006; conditions: FADDI-EC006
Procedure, shortened: as §1

[7] = system: Pseudomonas aeruginosa FADDI-PA038; conditions: FADDI-PA038
Procedure, shortened: as §1

[8] = system: Pseudomonas aeruginosa FADDI-PA01; conditions: FADDI-
Procedure, shortened: as §1

[9] = system: Acinetobacter baumannii ATCC 17978; conditions: ATCC 17978
Procedure, shortened: as §1

[10] = system: Klebsiella pneumoniae Kp BM1; conditions: Kp BM1
Procedure, shortened: as §2

[11] = system: Klebsiella pneumoniae FADDI-KP032; conditions: FADDI-KP032
Procedure, shortened: as §1

[12] = system: Pseudomonas aeruginosa ATCC 27853; conditions: ATCC 27853
Procedure, shortened: as §1

[13] = system: Acinetobacter baumannii FADDI-AB030; assay: microbe, parasite or virus in culture; conditions: FADDI-AB030
Procedure, shortened: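 Broth microdilution MIC in cation-adjusted Mueller-Hinton broth per CLSI M100-S24; lipopeptides tested as TFA salts. FADDI-AB030 is a multidrug-resistant clinical isolate. Polymyxin B sulphate served as control.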

| SMILES | Minimum inhibitory concentration [1] [µg/mL] | Minimum inhibitory concentration [2] [µg/mL] | Minimum inhibitory concentration [3] [µg/mL] | Minimum inhibitory concentration [4] [µg/mL] | Minimum inhibitory concentration [5] [µg/mL] | Minimum inhibitory concentration [6] [µg/mL] | Minimum inhibitory concentration [7] [µg/mL] | Minimum inhibitory concentration [8] [µg/mL] | Minimum inhibitory concentration [9] [µg/mL] | Minimum inhibitory concentration [10] [µg/mL] | Minimum inhibitory concentration [11] [µg/mL] | Minimum inhibitory concentration [12] [µg/mL] | Minimum inhibitory concentration [13] [µg/mL] |
| --- | --- | --- | --- | --- | --- | --- | --- | --- | --- | --- | --- | --- | --- |
| CCCC[C@H]1NC(=O)[C@H](CCN)NC(=O)[C@@H](NC(=O)[C@H](CN)NC(=O)[C@@H](NC(=O)[C@H](CCN)NC(=O)c2cc(Cl)ccn2)[C@@H](C)O)CCNC(=O)[C@H]([C@@H](C)O)NC(=O)[C@H](CCN)NC(=O)[C@H](CCN)NC(=O)[C@H](CC)NC1=O [Compound 95] (X29-[Dab]T[Dap][Dab][Dab][dNle][Abu][Dab][Dab]T; lactam 4-C) | 0.25 (≈ 0.222 µM) | 0.25 (≈ 0.222 µM) | 0.25 (≈ 0.222 µM) | 0.25 (≈ 0.222 µM) | <0.125 | <0.125 | 1 (≈ 0.888 µM) | <0.125 | 0.25 (≈ 0.222 µM) | 0.5 (≈ 0.444 µM) | <0.125 | 0.25 (≈ 0.222 µM) | 0.25 (≈ 0.222 µM) |
| CC[C@@H]1NC(=O)[C@@H](CC(C)C)NC(=O)[C@H](CCN)NC(=O)[C@@H](NC(=O)[C@H](CN)NC(=O)[C@@H](NC(=O)[C@H](CCN)NC(=O)c2cc(C(F)(F)F)ccn2)[C@@H](C)O)CCNC(=O)[C@H]([C@@H](C)O)NC(=O)[C@H](CCN)NC(=O)[C@H](CCN)NC1=O [Compound 21] (X45-[Dab]T[Dap][Dab][Dab][dL][Abu][Dab][Dab]T; lactam 4-C) | 0.25 (≈ 0.215 µM) | <0.125 | 0.25 (≈ 0.215 µM) | 0.25 (≈ 0.215 µM) | <0.125 | 1 (≈ 0.862 µM) | 0.5 (≈ 0.431 µM) | 0.25 (≈ 0.215 µM) | 0.25 (≈ 0.215 µM) | <0.125 | <0.125 | 0.25 (≈ 0.215 µM) | 0.25 (≈ 0.215 µM) |
| CC[C@@H]1NC(=O)[C@@H](CC(C)C)NC(=O)[C@H](CCN)NC(=O)[C@@H](NC(=O)[C@H](CN)NC(=O)[C@@H](NC(=O)[C@H](CCN)NC(=O)c2ccc(Cl)cn2)[C@@H](C)O)CCNC(=O)[C@H]([C@@H](C)O)NC(=O)[C@H](CCN)NC(=O)[C@H](CCN)NC1=O [Compound 37] (X30-[Dab]T[Dap][Dab][Dab][dL][Abu][Dab][Dab]T; lactam 4-C) | 0.25 (≈ 0.222 µM) | <0.125 | 1 (≈ 0.888 µM) | 0.25 (≈ 0.222 µM) | 0.25 (≈ 0.222 µM) | 0.5 (≈ 0.444 µM) | 0.5 (≈ 0.444 µM) | 0.25 (≈ 0.222 µM) | 2 (≈ 1.78 µM) | <0.125 | <0.125 | 0.25 (≈ 0.222 µM) | 0.5 (≈ 0.444 µM) |
| CC(C)C[C@H]1NC(=O)[C@H](CCN)NC(=O)[C@@H](NC(=O)[C@H](CN)NC(=O)[C@@H](NC(=O)[C@H](CCN)NC(=O)c2cc(Cl)ccn2)[C@@H](C)O)CCNC(=O)[C@H]([C@@H](C)O)NC(=O)[C@H](CCN)NC(=O)[C@H](CCN)NC(=O)[C@H]([C@@H](C)O)NC1=O [Compound 98] (X29-[Dab]T[Dap][Dab][Dab][dL]T[Dab][Dab]T; lactam 4-C) | <0.125 | <0.125 | 2 (≈ 1.75 µM) | 0.25 (≈ 0.219 µM) | <0.125 | 0.5 (≈ 0.438 µM) | 8 (≈ 7 µM) | 0.25 (≈ 0.219 µM) | 2 (≈ 1.75 µM) | 0.25 (≈ 0.219 µM) | 0.25 (≈ 0.219 µM) | 0.25 (≈ 0.219 µM) | 1 (≈ 0.875 µM) |
| CCC[C@H]1NC(=O)[C@H](CCN)NC(=O)[C@@H](NC(=O)[C@H](CN)NC(=O)[C@@H](NC(=O)[C@H](CCN)NC(=O)c2cc(Cl)ccn2)[C@@H](C)O)CCNC(=O)[C@H]([C@@H](C)O)NC(=O)[C@H](CCN)NC(=O)[C@H](CCN)NC(=O)[C@H](CC)NC1=O [Compound 96] (X29-[Dab]T[Dap][Dab][Dab][dNva][Abu][Dab][Dab]T; lactam 4-C) | 0.5 (≈ 0.449 µM) | 0.25 (≈ 0.225 µM) | 1 (≈ 0.899 µM) | 0.25 (≈ 0.225 µM) | 0.25 (≈ 0.225 µM) | 0.5 (≈ 0.449 µM) | 1 (≈ 0.899 µM) | 0.25 (≈ 0.225 µM) | 1 (≈ 0.899 µM) | 1 (≈ 0.899 µM) | 0.5 (≈ 0.449 µM) | 0.25 (≈ 0.225 µM) | 2 (≈ 1.8 µM) |
| CC(C)C[C@H]1NC(=O)[C@H](CCN)NC(=O)[C@@H](NC(=O)[C@H](CN)NC(=O)[C@@H](NC(=O)[C@H](CCN)NC(=O)c2ncc(Cl)cc2Cl)[C@@H](C)O)CCNC(=O)[C@H]([C@@H](C)O)NC(=O)[C@H](CCN)NC(=O)[C@H](CCN)NC(=O)[C@H]([C@@H](C)O)NC1=O [Compound 8] (X1-[Dab]T[Dap][Dab][Dab][dL]T[Dab][Dab]T; lactam 4-C) | 0.25 (≈ 0.212 µM) | <0.125 | 4 (≈ 3.4 µM) | 0.5 (≈ 0.425 µM) | <0.125 | 0.25 (≈ 0.212 µM) | 0.5 (≈ 0.425 µM) | 0.5 (≈ 0.425 µM) | 4 (≈ 3.4 µM) | 0.5 (≈ 0.425 µM) | 0.5 (≈ 0.425 µM) | 0.25 (≈ 0.212 µM) | 4 (≈ 3.4 µM) |
| CC[C@@H]1NC(=O)[C@@H](CC(C)C)NC(=O)[C@H](CCN)NC(=O)[C@@H](NC(=O)[C@H](CN)NC(=O)[C@@H](NC(=O)[C@H](CCN)NC(=O)c2cnc(Br)s2)[C@@H](C)O)CCNC(=O)[C@H]([C@@H](C)O)NC(=O)[C@H](CCN)NC(=O)[C@H](CCN)NC1=O [Compound 91] (X60-[Dab]T[Dap][Dab][Dab][dL][Abu][Dab][Dab]T; lactam 4-C) | 1 (≈ 0.849 µM) | <0.125 | 2 (≈ 1.7 µM) | 0.5 (≈ 0.425 µM) | 0.5 (≈ 0.425 µM) | 0.5 (≈ 0.425 µM) | 1 (≈ 0.849 µM) | 0.5 (≈ 0.425 µM) | 2 (≈ 1.7 µM) | 0.5 (≈ 0.425 µM) | 0.5 (≈ 0.425 µM) | 0.5 (≈ 0.425 µM) | 1 (≈ 0.849 µM) |
| CC[C@@H]1NC(=O)[C@@H](CC(C)C)NC(=O)[C@H](CCN)NC(=O)[C@@H](NC(=O)[C@H](CN)NC(=O)[C@@H](NC(=O)[C@H](CCN)NC(=O)c2cc(Br)c(Br)s2)[C@@H](C)O)CCNC(=O)[C@H]([C@@H](C)O)NC(=O)[C@H](CCN)NC(=O)[C@H](CCN)NC1=O [Compound 83] (X62-[Dab]T[Dap][Dab][Dab][dL][Abu][Dab][Dab]T; lactam 4-C) | 0.25 (≈ 0.199 µM) | <0.125 | <0.125 | 0.25 (≈ 0.199 µM) | 0.5 (≈ 0.398 µM) | <0.125 | 0.5 (≈ 0.398 µM) | 0.25 (≈ 0.199 µM) | 0.25 (≈ 0.199 µM) | <0.125 | 0.25 (≈ 0.199 µM) | 0.25 (≈ 0.199 µM) | <0.125 |
| CC[C@@H]1NC(=O)[C@@H](CC(C)C)NC(=O)[C@H](CCN)NC(=O)[C@@H](NC(=O)[C@H](CN)NC(=O)[C@@H](NC(=O)[C@H](CCN)NC(=O)c2cnc3ccccc3c2)[C@@H](C)O)CCNC(=O)[C@H]([C@@H](C)O)NC(=O)[C@H](CCN)NC(=O)[C@H](CCN)NC1=O [Compound 52] (Quinoline3carbonyl-[Dab]T[Dap][Dab][Dab][dL][Abu][Dab][Dab]T; lactam 4-C) | 0.5 (≈ 0.438 µM) | <0.125 | 1 (≈ 0.875 µM) | 0.5 (≈ 0.438 µM) | <0.125 | 1 (≈ 0.875 µM) | 0.25 (≈ 0.219 µM) | 0.5 (≈ 0.438 µM) | 2 (≈ 1.75 µM) | 0.5 (≈ 0.438 µM) | <0.125 | 0.5 (≈ 0.438 µM) | 0.5 (≈ 0.438 µM) |
